Reference: patent US6127136A, “Detection of dioxin-like compounds by detection of transformed Ah receptor/ARNT complex” (Paracelsian, Inc., priority 1996, dated 2000)

What was measured:
[1] = biological target: T1, transformed Ah receptor/ARNT complex (Cavia porcellus, UniProt Q6J287); assay: Ah-ELISA dose response using PnPP detection; assay type: biochemical, guinea pig (hepatic cytosol); design: from tissue; host or cells: hepatic cytosol of male Hartley guinea pigs (animals from Cornell Research Animal Resources); settings: for Average Optical Density: 405 nm, PnPP 58 minutes
Experimental: The reagents and ELISA plate were prepared as described in Example 9 with the standard PNPP detection technique. The TCDD concentration was varied tested at 0, 0.016, 0.031, 0.063, 0.125, 0.25, 0.5, and 1.0 nM. After washing the plates PnPP stock was added to each well (200 uL) and the plate was incubated for 1 hour (actually 58 minutes for data shown below), at which time it was read at 405 nm in an ELISA plate reader and milli O.D. recorded.

[2] = biological target: T1, transformed Ah receptor/ARNT complex; assay: sandwich ELISA detecting transformed Ah receptor/ARNT complex, DRE and anti-ARNT dilutions; assay type: biochemical, guinea pig (hepatic cytosol); design: from tissue; host or cells: hepatic cytosol of male Hartley guinea pigs (animals from Cornell Research Animal Resources)
Experimental: Working dilution of anti-ARNT was diluted (1:200, 50 uL in 10 mL) in PBS plus 0.02% tween 20 plus 0.1% bovine serum albumin. Working dilution of anti-Rabbit/alkaline phosphatase (Sigma, St. Louis, Mo.) was prepared by diluting 20 uL into 20 mL PBS plus 0.02% tween 20 plus 0.1% bovine serum albumin to make a 1:1000 dilution. Diethanolamine buffer was prepared by dissolving 0.4 g Magnesium chloride hexahydrate, 0.8 g sodium azide, 338 mL diethanolamine in 2.5 L deionized water, adjusting pH to 9.8 with concentrated HCl, and adjusting volume to 4 liters. PnPP stock was prepared fresh by dissoving two 15 mg tablets of para-nitro phenyl phosphate (Sigma, St. Louis, Mo.) in 20 mL diethanolamine buffer.
B-DRE (sequence ID 2) and DRE-D (sequence ID 1) were hybridized as described above. Cytosol was prepared as described above. Thirty five mL of cytosol was thawed and pooled. The cytosol was divided into two 17 mL aliquots and treated with either 17 uL DMSO, sample labled (-) or 17 uL 10 uM TCDD in DMSO with the sample labled (+). DMSO-treated cytosol (1700 uL) was mixed with 10.6 uL hybridized DRE (sample labeled B-). TCDD-treated cytosol (1700 uL) was mixed with 10.6 uL hybridized DRE (sample labeled B+).
A neutravidin-coated 96 well ELISA plate (Pierce), with the standard 12×8 well matrix, labeled 1-12 horizontally and A-H vertically, was warmed to room temperature. DMSO treated cytosol (-) was put in wells A2-A12 x D2-D12 at 200 uL per well. TCDD treated cytosol (+) was put in wells E2-E12 x H2-H12 at 200 uL per well. Untreated Cytosol plus DRE sample (B-), 400 uL per well, was put in wells A1-D1. Treated Cytosol sample plus DRE (13+), 400 uL per well, was put in wells […]. The Untreated cytosol plus DRE sample (B-) and treated cytosol sample plus DRE (B+) were then serially diluted 1:1 across the plate, resulting in a serial dilution of DRE in either 200 uL treated or 200 uL untreated cytosol. The last column (A12H12) contained 400 uL, so 200 uL of that was discarded. Highest dilution of DRE in column A1-H1 was arbitrarily called 1, with the other dilutions labeled 0.5, 0.25 . . . 0.0005 respectively.
The ELISA plate was incubated with gentle rocking for 2 hours to allow the transformaton of Ah receptor, binding of Ah receptor with ARNT, and binding of the Ah receptor/ARNT complex to the biotinylated DRE, and binding of the biotinylated DRE to the neutravidin bound to the ELISA plate.
After 2 hours the plate was washed 3 times with 300 uL PBS plus 0.02% tween 20 and 400 uL of the working dilution of anti-ARNT added to rows A1-A12 and E1-E12 of the ELISA plate. 200 uL of PBS plus 0.02% tween 20 plus 0.1% bovine serum albumin was added to the remaining wells. […] After 2 hours the plate was washed as before and working dilution (1:1000) of anti-rabbit/alkaline phosphatase conjugate was added to all wells. The plate was incubated for a further 1 hour at room temperature with gentle rocking and then washed as before. PnPP stock was added to each well (200 uL) and the plate was incubated for 1 hour, at which time it was read at 405 nm in an ELISA plate reader and milli O.D. recorded.

T1 sequence (Q6J287 1-846): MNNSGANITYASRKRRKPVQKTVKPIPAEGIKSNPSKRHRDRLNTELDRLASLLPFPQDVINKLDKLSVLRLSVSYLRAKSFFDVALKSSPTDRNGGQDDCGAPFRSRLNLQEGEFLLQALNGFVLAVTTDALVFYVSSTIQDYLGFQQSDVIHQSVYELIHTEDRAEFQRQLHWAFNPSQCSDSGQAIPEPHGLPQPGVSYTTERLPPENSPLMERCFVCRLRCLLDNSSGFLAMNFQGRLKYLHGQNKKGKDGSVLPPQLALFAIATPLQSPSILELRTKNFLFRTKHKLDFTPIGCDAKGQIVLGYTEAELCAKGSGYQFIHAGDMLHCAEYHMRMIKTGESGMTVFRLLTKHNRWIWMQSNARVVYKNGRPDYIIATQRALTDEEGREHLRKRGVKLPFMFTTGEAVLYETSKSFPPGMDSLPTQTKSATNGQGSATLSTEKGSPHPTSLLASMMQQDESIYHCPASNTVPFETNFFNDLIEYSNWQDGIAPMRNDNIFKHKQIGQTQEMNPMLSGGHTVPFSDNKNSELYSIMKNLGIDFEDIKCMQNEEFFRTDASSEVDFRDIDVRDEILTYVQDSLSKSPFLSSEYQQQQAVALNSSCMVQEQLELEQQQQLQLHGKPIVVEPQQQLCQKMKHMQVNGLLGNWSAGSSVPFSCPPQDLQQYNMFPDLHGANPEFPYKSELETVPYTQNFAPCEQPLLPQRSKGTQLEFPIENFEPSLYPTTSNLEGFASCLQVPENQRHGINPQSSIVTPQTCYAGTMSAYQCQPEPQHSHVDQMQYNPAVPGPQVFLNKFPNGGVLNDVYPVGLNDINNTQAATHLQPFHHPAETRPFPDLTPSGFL
T1 sequence (Q0WXX3 1-790 partner): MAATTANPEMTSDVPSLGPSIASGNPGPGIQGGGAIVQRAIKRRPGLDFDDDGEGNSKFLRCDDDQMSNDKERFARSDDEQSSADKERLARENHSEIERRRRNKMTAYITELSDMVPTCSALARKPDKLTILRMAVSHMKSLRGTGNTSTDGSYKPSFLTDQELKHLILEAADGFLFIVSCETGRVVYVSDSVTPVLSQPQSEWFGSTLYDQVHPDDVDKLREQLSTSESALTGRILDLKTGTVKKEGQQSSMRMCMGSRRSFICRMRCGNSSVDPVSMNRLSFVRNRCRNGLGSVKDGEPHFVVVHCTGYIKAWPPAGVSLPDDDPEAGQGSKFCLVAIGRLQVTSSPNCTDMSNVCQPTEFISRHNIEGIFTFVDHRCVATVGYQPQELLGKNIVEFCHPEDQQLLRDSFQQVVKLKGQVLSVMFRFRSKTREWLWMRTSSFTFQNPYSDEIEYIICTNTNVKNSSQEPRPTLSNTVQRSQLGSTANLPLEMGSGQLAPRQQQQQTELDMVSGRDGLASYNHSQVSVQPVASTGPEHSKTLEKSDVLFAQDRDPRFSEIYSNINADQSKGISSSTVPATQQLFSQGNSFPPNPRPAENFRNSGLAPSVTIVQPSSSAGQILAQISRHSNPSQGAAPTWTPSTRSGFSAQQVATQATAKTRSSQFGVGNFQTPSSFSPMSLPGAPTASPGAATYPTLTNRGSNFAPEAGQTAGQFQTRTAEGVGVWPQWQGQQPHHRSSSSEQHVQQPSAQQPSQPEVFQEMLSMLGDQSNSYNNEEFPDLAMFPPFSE

SMILES: Clc1cc2c(cc1Cl)Oc1cc(Cl)c(Cl)cc1O2 [TCDD, 2,3,7,8-tetrachlorodibenzo-p-dioxin]
- Average Optical Density ([1]; 0.016 nM TCDD): 0.3
- Average Optical Density ([1]; 0.031 nM TCDD): 0.338
- Average Optical Density ([1]; 0.063 nM TCDD): 0.4
- Average Optical Density ([1]; 0.125 nM TCDD): 0.527
- Average Optical Density ([1]; 0.25 nM TCDD): 0.804
- Average Optical Density ([1]; 0.5 nM TCDD): 1.409
- Average Optical Density ([1]; 1 nM TCDD): 2.155
- EC50 ([1]; PnPP detection, FIG. 6): ~0.248 nM
- response in sandwich ELISA ([2]; Example 7 conclusion): gives a differential response
- O.D. at 405 nm ([2]; anti-ARNT dilution 0.000625, DRE dilution 0.002, TCDD (+)): 463 milli O.D.
- O.D. at 405 nm ([2]; anti-ARNT dilution 0.000625, DRE dilution 0.004, TCDD (+)): 595 milli O.D.
- O.D. at 405 nm ([2]; anti-ARNT dilution 0.000625, DRE dilution 0.008, TCDD (+)): 726 milli O.D.
- O.D. at 405 nm ([2]; anti-ARNT dilution 0.000625, DRE dilution 0.016, TCDD (+)): 639 milli O.D.
- O.D. at 405 nm ([2]; anti-ARNT dilution 0.000625, DRE dilution 0.031, TCDD (+)): 562 milli O.D.
- O.D. at 405 nm ([2]; anti-ARNT dilution 0.000625, DRE dilution 0.063, TCDD (+)): 480 milli O.D.
- O.D. at 405 nm ([2]; anti-ARNT dilution 0.000625, DRE dilution 0.125, TCDD (+)): 411 milli O.D.
- O.D. at 405 nm ([2]; anti-ARNT dilution 0.000625, DRE dilution 0.25, TCDD (+)): 392 milli O.D.
- O.D. at 405 nm ([2]; anti-ARNT dilution 0.000625, DRE dilution 0.5, TCDD (+)): 393 milli O.D.
- O.D. at 405 nm ([2]; anti-ARNT dilution 0.000625, DRE dilution 1, TCDD (+)): 408 milli O.D.
- O.D. at 405 nm ([2]; anti-ARNT dilution 0.000625, DRE dilution 1E-03, TCDD (+)): 442 milli O.D.
- O.D. at 405 nm ([2]; anti-ARNT dilution 0.000625, DRE dilution 5E-04, TCDD (+)): 480 milli O.D.
- O.D. at 405 nm ([2]; anti-ARNT dilution 0.00125, DRE dilution 0.002, TCDD (+)): 595 milli O.D.
- O.D. at 405 nm ([2]; anti-ARNT dilution 0.00125, DRE dilution 0.004, TCDD (+)): 932 milli O.D.
- O.D. at 405 nm ([2]; anti-ARNT dilution 0.00125, DRE dilution 0.008, TCDD (+)): 1070 milli O.D.
- O.D. at 405 nm ([2]; anti-ARNT dilution 0.00125, DRE dilution 0.016, TCDD (+)): 916 milli O.D.
- O.D. at 405 nm ([2]; anti-ARNT dilution 0.00125, DRE dilution 0.031, TCDD (+)): 767 milli O.D.
- O.D. at 405 nm ([2]; anti-ARNT dilution 0.00125, DRE dilution 0.063, TCDD (+)): 537 milli O.D.
- O.D. at 405 nm ([2]; anti-ARNT dilution 0.00125, DRE dilution 0.125, TCDD (+)): 487 milli O.D.
- O.D. at 405 nm ([2]; anti-ARNT dilution 0.00125, DRE dilution 0.25, TCDD (+)): 406 milli O.D.
- O.D. at 405 nm ([2]; anti-ARNT dilution 0.00125, DRE dilution 0.5, TCDD (+)): 393 milli O.D.
- O.D. at 405 nm ([2]; anti-ARNT dilution 0.00125, DRE dilution 1, TCDD (+)): 387 milli O.D.
- O.D. at 405 nm ([2]; anti-ARNT dilution 0.00125, DRE dilution 1E-03, TCDD (+)): 484 milli O.D.
- O.D. at 405 nm ([2]; anti-ARNT dilution 0.00125, DRE dilution 5E-04, TCDD (+)): 498 milli O.D.
- O.D. at 405 nm ([2]; anti-ARNT dilution 0.0025, DRE dilution 0.002, TCDD (+)): 922 milli O.D.
- O.D. at 405 nm ([2]; anti-ARNT dilution 0.0025, DRE dilution 0.004, TCDD (+)): 1281 milli O.D.
- O.D. at 405 nm ([2]; anti-ARNT dilution 0.0025, DRE dilution 0.008, TCDD (+)): 1682 milli O.D.
- O.D. at 405 nm ([2]; anti-ARNT dilution 0.0025, DRE dilution 0.016, TCDD (+)): 1486 milli O.D.
- O.D. at 405 nm ([2]; anti-ARNT dilution 0.0025, DRE dilution 0.031, TCDD (+)): 1125 milli O.D.
- O.D. at 405 nm ([2]; anti-ARNT dilution 0.0025, DRE dilution 0.063, TCDD (+)): 804 milli O.D.
- O.D. at 405 nm ([2]; anti-ARNT dilution 0.0025, DRE dilution 0.125, TCDD (+)): 608 milli O.D.
- O.D. at 405 nm ([2]; anti-ARNT dilution 0.0025, DRE dilution 0.25, TCDD (+)): 532 milli O.D.
- O.D. at 405 nm ([2]; anti-ARNT dilution 0.0025, DRE dilution 0.5, TCDD (+)): 544 milli O.D.
- O.D. at 405 nm ([2]; anti-ARNT dilution 0.0025, DRE dilution 1, TCDD (+)): 585 milli O.D.
- O.D. at 405 nm ([2]; anti-ARNT dilution 0.0025, DRE dilution 1E-03, TCDD (+)): 680 milli O.D.
- O.D. at 405 nm ([2]; anti-ARNT dilution 0.0025, DRE dilution 5E-04, TCDD (+)): 722 milli O.D.
- O.D. at 405 nm ([2]; anti-ARNT dilution 0.005, DRE dilution 0.002, TCDD (+)): 1524 milli O.D.
- O.D. at 405 nm ([2]; anti-ARNT dilution 0.005, DRE dilution 0.004, TCDD (+)): 2029 milli O.D.
- O.D. at 405 nm ([2]; anti-ARNT dilution 0.005, DRE dilution 0.008, TCDD (+)): 2558 milli O.D.
- O.D. at 405 nm ([2]; anti-ARNT dilution 0.005, DRE dilution 0.016, TCDD (+)): 2122 milli O.D.
- O.D. at 405 nm ([2]; anti-ARNT dilution 0.005, DRE dilution 0.031, TCDD (+)): 1706 milli O.D.
- O.D. at 405 nm ([2]; anti-ARNT dilution 0.005, DRE dilution 0.063, TCDD (+)): 1202 milli O.D.
- O.D. at 405 nm ([2]; anti-ARNT dilution 0.005, DRE dilution 0.125, TCDD (+)): 963 milli O.D.
- O.D. at 405 nm ([2]; anti-ARNT dilution 0.005, DRE dilution 0.25, TCDD (+)): 777 milli O.D.
- O.D. at 405 nm ([2]; anti-ARNT dilution 0.005, DRE dilution 0.5, TCDD (+)): 765 milli O.D.
- O.D. at 405 nm ([2]; anti-ARNT dilution 0.005, DRE dilution 1, TCDD (+)): 771 milli O.D.
- O.D. at 405 nm ([2]; anti-ARNT dilution 0.005, DRE dilution 1E-03, TCDD (+)): 1070 milli O.D.
- O.D. at 405 nm ([2]; anti-ARNT dilution 0.005, DRE dilution 5E-04, TCDD (+)): 1191 milli O.D.
